Consider 6 molecules from paper PMC5817852 (The Open Medicinal Chemistry Journal, 2018).

Molecules are shown by their SMILES.

The first series relates to HT29 colorectal carcinoma. As to the kind of experiment: qHTS cell viability screen (Cell Titer Glo), HT29. The series is classed as cell-based. As to conditions: Homo sapiens, HT-29, 72 h, HT29 colorectal carcinoma, 72 hours, cell viability Cell Titer Glo; read-out: CC50 HT29. Background: qHTS replaces the single test concentration by a dilution series.
What is called CC50 is the concentration that lowers cell viability or growth by half. As for `COc1cc(/C=C2/C(C)=C(CNC(=O)[C@@H]3CCCN3)c3cc(F)ccc32)cc(OC)c1OC` [Compound 33], the CC50 was 5.67 ± 1.67 µM.
On the same count and under the same terms, next, `CSc1ccc(/C=C2/C(C)=C(CNS(C)(=O)=O)c3cc(F)ccc32)cc1` [Compound 34]: 7.43 ± 0.48 µM; `CCS(=O)(=O)NCC1=C(C)/C(=C/c2cc(OC)c(OC)c(OC)c2)c2ccc(F)cc21` [Compound 42]: 15.6 ± 5.56 µM; `COc1cc(/C=C2/C(C)=C(CNS(=O)(=O)c3ccc4ccccc4c3)c3cc(F)ccc32)cc(OC)c1OC` [Compound 46]: above 50 µM.
For `COc1cc(/C=C2/C(C)=C(CN(Cc3ccc4ccccc4c3)Cc3ccc4ccccc4c3)c3cc(F)ccc32)cc(OC)c1OC` [Compound 58], the CC50 was above 50 µM.
For the molecule `CSc1ccc(/C=C2/C(C)=C(CC(=O)NCCN(C)C)c3cc(F)ccc32)cc1` [SSA, Sulindac sulfide amide, reference compound], the CC50 stood at 0.65 ± 0.03 µM.

The next series has as its system PC3 prostate cancer cell line. As to the kind of experiment: qHTS cell viability screen (Cell Titer Glo), PC3. In kind it is cell-based. As to conditions: 72 h, PC3 prostate, 72 hours, cell viability Cell Titer Glo; read-out: CC50 PC3.
Regarding `COc1cc(/C=C2/C(C)=C(CNC(=O)[C@@H]3CCCN3)c3cc(F)ccc32)cc(OC)c1OC` [Compound 33], the CC50 stood at 11.9 ± 1.56 µM.
For `CSc1ccc(/C=C2/C(C)=C(CNS(C)(=O)=O)c3cc(F)ccc32)cc1` [Compound 34], the CC50 was determined as 20.2 ± 3.2 µM.
Same read-out and setting: to `CCS(=O)(=O)NCC1=C(C)/C(=C/c2cc(OC)c(OC)c(OC)c2)c2ccc(F)cc21` [Compound 42] belongs 15.1 ± 1.84 µM; to `COc1cc(/C=C2/C(C)=C(CNS(=O)(=O)c3ccc4ccccc4c3)c3cc(F)ccc32)cc(OC)c1OC` [Compound 46], above 50 µM.
Still for that read-out and setting: next, `COc1cc(/C=C2/C(C)=C(CN(Cc3ccc4ccccc4c3)Cc3ccc4ccccc4c3)c3cc(F)ccc32)cc(OC)c1OC` [Compound 58]: above 50 µM.
On the same count and under the same terms, next, `CSc1ccc(/C=C2/C(C)=C(CC(=O)NCCN(C)C)c3cc(F)ccc32)cc1` [SSA, Sulindac sulfide amide, reference compound]: 3.12 ± 0.15 µM.

The test system of another series is MDA-MB-231 breast cancer cell line. As to the kind of experiment: qHTS cell viability screen (Cell Titer Glo), MDA-MB-231. As to conditions: Homo sapiens, MDA-MB-231, 96 h, MDA-MB-231 breast, 96 hours, cell viability Cell Titer Glo; read-out: CC50 MDA-MB-231. In kind it is cell-based.
On to `COc1cc(/C=C2/C(C)=C(CNC(=O)[C@@H]3CCCN3)c3cc(F)ccc32)cc(OC)c1OC` [Compound 33], for which the CC50 came to 8.2 ± 0.99 µM.
Take `CSc1ccc(/C=C2/C(C)=C(CNS(C)(=O)=O)c3cc(F)ccc32)cc1` [Compound 34]: the CC50 was 9.06 ± 2.26 µM.
The same measure, in the same setting: to `CCS(=O)(=O)NCC1=C(C)/C(=C/c2cc(OC)c(OC)c(OC)c2)c2ccc(F)cc21` [Compound 42] belongs 6.58 ± 1.39 µM.
The same measure, in the same setting: next, `COc1cc(/C=C2/C(C)=C(CNS(=O)(=O)c3ccc4ccccc4c3)c3cc(F)ccc32)cc(OC)c1OC` [Compound 46]: above 50 µM; `COc1cc(/C=C2/C(C)=C(CN(Cc3ccc4ccccc4c3)Cc3ccc4ccccc4c3)c3cc(F)ccc32)cc(OC)c1OC` [Compound 58]: above 50 µM.
The same measure, in the same setting: to `CSc1ccc(/C=C2/C(C)=C(CC(=O)NCCN(C)C)c3cc(F)ccc32)cc1` [SSA, Sulindac sulfide amide, reference compound] belongs 2.67 ± 0.08 µM.

In a further series the test system is Acute T cell leukemia Jurkat e6-1 cells (JURKT). As to the kind of experiment: Additional cancer cell line panel, JURKT. The series is classed as cell-based. The note with it: Homo sapiens, Jurkat E6.1; confidence intervals in parentheses; NA: not active.
As a reminder, the EC50 is the concentration at which the effect is half-maximal. With `COc1cc(/C=C2/C(C)=C(CNC(=O)[C@@H]3CCCN3)c3cc(F)ccc32)cc(OC)c1OC` [Compound 33], the EC50 was 33 µM.

A further series relates to REH cells (precursor B-cell ALL). As to the kind of experiment: Additional cancer cell line panel, REH. The series is classed as cell-based, human. As to conditions: Homo sapiens, REH; confidence intervals in parentheses; NA: not active; read-out: EC50 REH.
As for `COc1cc(/C=C2/C(C)=C(CNC(=O)[C@@H]3CCCN3)c3cc(F)ccc32)cc(OC)c1OC` [Compound 33], the EC50 was 38 µM.

System in another series: not listed separately
In words: BJ cell cytotoxicity counter screen. As to conditions: human, BJ cells (normal human foreskin fibroblast cell line). An excerpt: (§1) Most analogs in the presented series are lipophilic while also containing a positively charged amine. Lipophilic basic amines can accumulate in cell membranes if their lipophilic atom groups form favorable non-polar contacts with lipid chains while their charged amine is interacting with fatty acid head groups. Such association with lipids can lead to cytotoxicity through membrane destabilization. Therefore, we evaluated a number of representative compounds against BJ cells, a normal human foreskin fibroblast cell line, where cytotoxicity was determined at 10 µM drug concentration, as described previously.
(§2) minimum locked at 0 and 100 respectively.
(§3) children with ALL in relapse.
(§4) foreskin fibroblast cell line (BJ).
(§5) Table 2. […] SSA: Sulindac sulfide
(A counterscreen serves to expose hits that act by an unwanted route or on another target.)
In turn, `COc1cc(/C=C2/C(C)=C(CNC(=O)[C@@H]3CCCN3)c3cc(F)ccc32)cc(OC)c1OC` [Compound 33] registered an EC50 above 22.7 µM.
Consider `CSc1ccc(/C=C2/C(C)=C(CNS(C)(=O)=O)c3cc(F)ccc32)cc1` [Compound 34], for which the concentration giving a half-maximal response (EC50) was above 22.7 µM.

The subject of another series is BJ cells, normal human foreskin fibroblast cell line. In words: BJ cell cytotoxicity counter screen. The note with it: read-out: EC50 BJ (cytotoxicity); BJ normal human foreskin fibroblasts; confidence intervals in parentheses.
Excerpt: as §1, §2, §3, §4, §5
With `CSc1ccc(/C=C2/C(C)=C(CC(=O)NCCN(C)C)c3cc(F)ccc32)cc1` [SSA, Sulindac sulfide amide, reference compound], the EC50 is above 7.57 µM.

System in a further series: not given
Assay: not given
Conditions: not given
As usually defined, the melting point is the temperature, or range, at which the solid turns liquid. In turn, `COc1cc(/C=C2/C(C)=C(CNC(=O)[C@@H]3CCCN3)c3cc(F)ccc32)cc(OC)c1OC` [Compound 33] returned a melting point of 64 to 66 °C.
On the same count and under the same terms, next, `CSc1ccc(/C=C2/C(C)=C(CNS(C)(=O)=O)c3cc(F)ccc32)cc1` [Compound 34]: 159 to 160 °C; `CCS(=O)(=O)NCC1=C(C)/C(=C/c2cc(OC)c(OC)c(OC)c2)c2ccc(F)cc21` [Compound 42]: 132 to 134 °C.
Take `COc1cc(/C=C2/C(C)=C(CNS(=O)(=O)c3ccc4ccccc4c3)c3cc(F)ccc32)cc(OC)c1OC` [Compound 46]: the melting point was 118 to 120 °C.
Same read-out and setting: to `COc1cc(/C=C2/C(C)=C(CN(Cc3ccc4ccccc4c3)Cc3ccc4ccccc4c3)c3cc(F)ccc32)cc(OC)c1OC` [Compound 58] belongs 95 to 97 °C.

The subject of a further series is COX-1.
Assay: not given
On the set-up: method as in PMID 19470791. As to conditions: cited from earlier work.
For the molecule `CSc1ccc(/C=C2/C(C)=C(CC(=O)NCCN(C)C)c3cc(F)ccc32)cc1` [SSA, Sulindac sulfide amide, reference compound], the “activity against COX-1” value is on record as “no activity”.

The test system of a further series is COX-2.
Assay: not given
As to conditions: cited from earlier work. On the set-up: method as in PMID 19470791.
`CSc1ccc(/C=C2/C(C)=C(CC(=O)NCCN(C)C)c3cc(F)ccc32)cc1` [SSA, Sulindac sulfide amide, reference compound]: the “activity against COX-2” value was “no activity”.
